Test results as given in the supplement of paper PMC8671470.
Where a name gives a salt, the structure may show the parent alone.

System: myeloid leukemia patient primary cells Pat.5
Experiment: area under dose-response curve (viability, 1 nM-10 uM) (fraction (0-1)); higher = more sensitive
Conditions: 72 h
Description: (§1)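 AUC (0–1, higher = more sensitive) of the 5-point dose–response (1 nM–10 µM, 72 h, CellTiter-Glo) in primary AML/CML patient mononuclear cells. 0.030103 is the floor for inactive compounds.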

Point of comparison: `O=C(Oc1cccc(F)c1OC(=O)c1cccc(O)c1)c1cccc(O)c1` [WZB117], “area under dose-response curve” value 0.748. Against it:
- C=C1NC(=O)c2cc(CN(C)c3ccc(C(=O)N[C@@H](CCC(=O)O)C(=O)O)s3)ccc2N1 [Raltitrexed] — lower, < 0.0301
- Fc1ccc(CNc2ncnc3ccc(F)cc23)cc1 [Spautin 1] — lower, 0.326
- CC(C)(Cc1ccccc1)NCC(O)c1ccc(O)c(NS(C)(=O)=O)c1 (stereo not given) [Zinterol hydrochloride] — lower, < 0.0301

System: myeloid leukemia patient primary cells Pat.11
Experiment: as above
Conditions: 72 h
Description: as §1

Point of comparison: `O=C(Oc1cccc(F)c1OC(=O)c1cccc(O)c1)c1cccc(O)c1` [WZB117], “area under dose-response curve” value 0.0511. Against it:
- O=C(c1c2ccccc2cc2ccccc12)N1CCC(N2CCC[C@@H](C(=O)N3CCOCC3)C2)CC1 — lower, < 0.0301
- c1ccc2c(c1)SCc1c-2[nH]c2ccccc12 — higher, 0.148
- Oc1ncc(F)c(O)n1 [5-fluorouracil] — lower, < 0.0301
- CN(C)CCNC(=O)c1cccn2c(=O)c3cc4ccccc4cc3nc12 [Bmh-21] — higher, 0.31
- O=C(Cc1cccc(OC(F)(F)F)c1)Nc1ccc(CCCCc2nnc(NC(=O)Cc3ccccn3)s2)nn1 [CB-839] — lower, < 0.0301
- O=C(/C=C/c1cccnc1)NCCCCC1CCN(C(=O)c2ccccc2)CC1 [Daporinad] — higher, 0.849
- Clc1cc(Cl)c(OCC#CI)cc1Cl [Haloprogin] — higher, 0.166
- O=c1[nH]c(=O)n([C@H]2C[C@H](O)[C@@H](CO)O2)cc1I [Idoxuridine] — lower, < 0.0301
- Cc1nnc(-c2ccc(N3CCC(Oc4ccccc4C(F)(F)F)CC3)nn2)s1 [MF-438] — lower, < 0.0301
- CCCCCCCCCCCCC/C=C/[C@@H](O)[C@H](CO)N(C)C [N,N-Dimethylsphingosine] — higher, 0.0868
- Nc1nc(O)c2c(CCc3ccc(C(=O)N[C@@H](CCC(=O)O)C(=O)O)cc3)c[nH]c2n1 [Pemetrexed] — lower, < 0.0301
- C=C1NC(=O)c2cc(CN(C)c3ccc(C(=O)N[C@@H](CCC(=O)O)C(=O)O)s3)ccc2N1 [Raltitrexed] — lower, < 0.0301
- CC(C)(Cc1ccccc1)NCC(O)c1ccc(O)c(NS(C)(=O)=O)c1 (stereo not given) [Zinterol hydrochloride] — lower, < 0.0301

System: myeloid leukemia patient primary cells Pat.6
Experiment: as above
Conditions: 72 h
Description: as §1

Point of comparison: `c1ccc2c(c1)SCc1c-2[nH]c2ccccc12`, “area under dose-response curve” value 0.14. Against it:
- O=C(c1c2ccccc2cc2ccccc12)N1CCC(N2CCC[C@@H](C(=O)N3CCOCC3)C2)CC1 — lower, < 0.0301
- Oc1ncc(F)c(O)n1 [5-fluorouracil] — lower, < 0.0301
- CN(C)CCNC(=O)c1cccn2c(=O)c3cc4ccccc4cc3nc12 [Bmh-21] — higher, 0.199
- O=C(Cc1cccc(OC(F)(F)F)c1)Nc1ccc(CCCCc2nnc(NC(=O)Cc3ccccn3)s2)nn1 [CB-839] — lower, < 0.0301
- O=C(/C=C/c1cccnc1)NCCCCC1CCN(C(=O)c2ccccc2)CC1 [Daporinad] — higher, 0.609
- Nc1ccn([C@@H]2O[C@H](CO)[C@@H](O)C2(F)F)c(=O)n1 [Gemcitabine] — lower, < 0.0301
- Clc1cc(Cl)c(OCC#CI)cc1Cl [Haloprogin] — higher, 0.238
- O=c1[nH]c(=O)n([C@H]2C[C@H](O)[C@@H](CO)O2)cc1I [Idoxuridine] — lower, < 0.0301
- Cc1nnc(-c2ccc(N3CCC(Oc4ccccc4C(F)(F)F)CC3)nn2)s1 [MF-438] — lower, < 0.0301
- CCCCCCCCCCCCC/C=C/[C@@H](O)[C@H](CO)N(C)C [N,N-Dimethylsphingosine] — higher, 0.15
- Nc1nc(O)c2c(CCc3ccc(C(=O)N[C@@H](CCC(=O)O)C(=O)O)cc3)c[nH]c2n1 [Pemetrexed] — lower, < 0.0301
- C=C1NC(=O)c2cc(CN(C)c3ccc(C(=O)N[C@@H](CCC(=O)O)C(=O)O)s3)ccc2N1 [Raltitrexed] — lower, < 0.0301
- Fc1ccc(CNc2ncnc3ccc(F)cc23)cc1 [Spautin 1] — lower, 0.0755
- O=C(Oc1cccc(F)c1OC(=O)c1cccc(O)c1)c1cccc(O)c1 [WZB117] — lower, < 0.0301
- CC(C)(Cc1ccccc1)NCC(O)c1ccc(O)c(NS(C)(=O)=O)c1 (stereo not given) [Zinterol hydrochloride] — lower, < 0.0301

System: myeloid leukemia patient primary cells Pat.4
Experiment: as above
Conditions: 72 h
Description: as §1

Point of comparison: `O=C(/C=C/c1cccnc1)NCCCCC1CCN(C(=O)c2ccccc2)CC1` [Daporinad], “area under dose-response curve” value 0.947. Against it:
- O=C(c1c2ccccc2cc2ccccc12)N1CCC(N2CCC[C@@H](C(=O)N3CCOCC3)C2)CC1 — lower, < 0.0301
- c1ccc2c(c1)SCc1c-2[nH]c2ccccc12 — lower, 0.192
- CCC(CC#N)OC(=O)N[C@@H](C)c1cccc(NC(=O)Nc2ccc(-c3cnco3)c(OC)c2)c1 (stereo in doubt) [AVN-944] — lower, 0.162
- Oc1ncc(F)c(O)n1 [5-fluorouracil] — lower, 0.0407
- CN(C)CCNC(=O)c1cccn2c(=O)c3cc4ccccc4cc3nc12 [Bmh-21] — lower, 0.36
- O=C(Cc1cccc(OC(F)(F)F)c1)Nc1ccc(CCCCc2nnc(NC(=O)Cc3ccccn3)s2)nn1 [CB-839] — lower, < 0.0301
- Nc1ccn([C@@H]2O[C@H](CO)[C@@H](O)C2(F)F)c(=O)n1 [Gemcitabine] — lower, 0.155
- Clc1cc(Cl)c(OCC#CI)cc1Cl [Haloprogin] — lower, 0.323
- O=c1[nH]c(=O)n([C@H]2C[C@H](O)[C@@H](CO)O2)cc1I [Idoxuridine] — lower, < 0.0301
- NS(=O)(=O)c1ccc(S(=O)(=O)Nc2cccc3c(Cl)c[nH]c23)cc1 [Indisulam] — lower, 0.29
- CCCCCCCCCCCCC/C=C/[C@@H](O)[C@H](CO)N(C)C [N,N-Dimethylsphingosine] — lower, 0.153
- Nc1nc(O)c2c(CCc3ccc(C(=O)N[C@@H](CCC(=O)O)C(=O)O)cc3)c[nH]c2n1 [Pemetrexed] — lower, < 0.0301
- C=C1NC(=O)c2cc(CN(C)c3ccc(C(=O)N[C@@H](CCC(=O)O)C(=O)O)s3)ccc2N1 [Raltitrexed] — lower, < 0.0301
- Fc1ccc(CNc2ncnc3ccc(F)cc23)cc1 [Spautin 1] — lower, 0.0735
- O=C(Oc1cccc(F)c1OC(=O)c1cccc(O)c1)c1cccc(O)c1 [WZB117] — lower, 0.0833
- CC(C)(Cc1ccccc1)NCC(O)c1ccc(O)c(NS(C)(=O)=O)c1 (stereo not given) [Zinterol hydrochloride] — lower, < 0.0301

System: myeloid leukemia patient primary cells Pat.8
Experiment: as above
Conditions: 72 h
Description: as §1

Point of comparison: `O=C(/C=C/c1cccnc1)NCCCCC1CCN(C(=O)c2ccccc2)CC1` [Daporinad], “area under dose-response curve” value 0.823. Against it:
- O=C(c1c2ccccc2cc2ccccc12)N1CCC(N2CCC[C@@H](C(=O)N3CCOCC3)C2)CC1 — lower, < 0.0301
- c1ccc2c(c1)SCc1c-2[nH]c2ccccc12 — lower, 0.139
- Oc1ncc(F)c(O)n1 [5-fluorouracil] — lower, < 0.0301
- CN(C)CCNC(=O)c1cccn2c(=O)c3cc4ccccc4cc3nc12 [Bmh-21] — lower, 0.121
- O=C(Cc1cccc(OC(F)(F)F)c1)Nc1ccc(CCCCc2nnc(NC(=O)Cc3ccccn3)s2)nn1 [CB-839] — lower, < 0.0301
- Nc1ccn([C@@H]2O[C@H](CO)[C@@H](O)C2(F)F)c(=O)n1 [Gemcitabine] — lower, 0.0474
- Clc1cc(Cl)c(OCC#CI)cc1Cl [Haloprogin] — lower, 0.175
- O=c1[nH]c(=O)n([C@H]2C[C@H](O)[C@@H](CO)O2)cc1I [Idoxuridine] — lower, < 0.0301
- NS(=O)(=O)c1ccc(S(=O)(=O)Nc2cccc3c(Cl)c[nH]c23)cc1 [Indisulam] — lower, 0.0654
- Cc1nnc(-c2ccc(N3CCC(Oc4ccccc4C(F)(F)F)CC3)nn2)s1 [MF-438] — lower, < 0.0301
- CCCCCCCCCCCCC/C=C/[C@@H](O)[C@H](CO)N(C)C [N,N-Dimethylsphingosine] — lower, 0.114
- Nc1nc(O)c2c(CCc3ccc(C(=O)N[C@@H](CCC(=O)O)C(=O)O)cc3)c[nH]c2n1 [Pemetrexed] — lower, < 0.0301
- C=C1NC(=O)c2cc(CN(C)c3ccc(C(=O)N[C@@H](CCC(=O)O)C(=O)O)s3)ccc2N1 [Raltitrexed] — lower, < 0.0301
- Fc1ccc(CNc2ncnc3ccc(F)cc23)cc1 [Spautin 1] — lower, 0.0661
- O=C(Oc1cccc(F)c1OC(=O)c1cccc(O)c1)c1cccc(O)c1 [WZB117] — lower, 0.211
- CC(C)(Cc1ccccc1)NCC(O)c1ccc(O)c(NS(C)(=O)=O)c1 (stereo not given) [Zinterol hydrochloride] — lower, < 0.0301

System: myeloid leukemia patient primary cells Pat.13
Experiment: as above
Conditions: 72 h
Description: as §1

Point of comparison: `c1ccc2c(c1)SCc1c-2[nH]c2ccccc12`, “area under dose-response curve” value 0.176. Against it:
- O=C(c1c2ccccc2cc2ccccc12)N1CCC(N2CCC[C@@H](C(=O)N3CCOCC3)C2)CC1 — lower, < 0.0301
- CCC(CC#N)OC(=O)N[C@@H](C)c1cccc(NC(=O)Nc2ccc(-c3cnco3)c(OC)c2)c1 (stereo in doubt) [AVN-944] — lower, 0.162
- Oc1ncc(F)c(O)n1 [5-fluorouracil] — lower, < 0.0301
- CN(C)CCNC(=O)c1cccn2c(=O)c3cc4ccccc4cc3nc12 [Bmh-21] — higher, 0.338
- O=C(Cc1cccc(OC(F)(F)F)c1)Nc1ccc(CCCCc2nnc(NC(=O)Cc3ccccn3)s2)nn1 [CB-839] — lower, < 0.0301
- O=C(/C=C/c1cccnc1)NCCCCC1CCN(C(=O)c2ccccc2)CC1 [Daporinad] — higher, 0.754
- Nc1ccn([C@@H]2O[C@H](CO)[C@@H](O)C2(F)F)c(=O)n1 [Gemcitabine] — lower, 0.0519
- Clc1cc(Cl)c(OCC#CI)cc1Cl [Haloprogin] — lower, 0.152
- O=c1[nH]c(=O)n([C@H]2C[C@H](O)[C@@H](CO)O2)cc1I [Idoxuridine] — lower, < 0.0301
- NS(=O)(=O)c1ccc(S(=O)(=O)Nc2cccc3c(Cl)c[nH]c23)cc1 [Indisulam] — lower, 0.167
- Cc1nnc(-c2ccc(N3CCC(Oc4ccccc4C(F)(F)F)CC3)nn2)s1 [MF-438] — lower, < 0.0301
- CCCCCCCCCCCCC/C=C/[C@@H](O)[C@H](CO)N(C)C [N,N-Dimethylsphingosine] — lower, 0.131
- Nc1nc(O)c2c(CCc3ccc(C(=O)N[C@@H](CCC(=O)O)C(=O)O)cc3)c[nH]c2n1 [Pemetrexed] — lower, < 0.0301
- C=C1NC(=O)c2cc(CN(C)c3ccc(C(=O)N[C@@H](CCC(=O)O)C(=O)O)s3)ccc2N1 [Raltitrexed] — lower, < 0.0301
- Fc1ccc(CNc2ncnc3ccc(F)cc23)cc1 [Spautin 1] — lower, 0.111
- O=C(Oc1cccc(F)c1OC(=O)c1cccc(O)c1)c1cccc(O)c1 [WZB117] — lower, < 0.0301
- CC(C)(Cc1ccccc1)NCC(O)c1ccc(O)c(NS(C)(=O)=O)c1 (stereo not given) [Zinterol hydrochloride] — lower, < 0.0301

System: myeloid leukemia patient primary cells Pat.14
Experiment: as above
Conditions: 72 h
Description: as §1

Point of comparison: `CCCCCCCCCCCCC/C=C/[C@@H](O)[C@H](CO)N(C)C` [N,N-Dimethylsphingosine], “area under dose-response curve” value 0.273. Against it:
- O=C(c1c2ccccc2cc2ccccc12)N1CCC(N2CCC[C@@H](C(=O)N3CCOCC3)C2)CC1 — lower, < 0.0301
- c1ccc2c(c1)SCc1c-2[nH]c2ccccc12 — higher, 0.403
- CCC(CC#N)OC(=O)N[C@@H](C)c1cccc(NC(=O)Nc2ccc(-c3cnco3)c(OC)c2)c1 (stereo in doubt) [AVN-944] — lower, 0.167
- Oc1ncc(F)c(O)n1 [5-fluorouracil] — lower, < 0.0301
- CN(C)CCNC(=O)c1cccn2c(=O)c3cc4ccccc4cc3nc12 [Bmh-21] — lower, 0.254
- O=C(Cc1cccc(OC(F)(F)F)c1)Nc1ccc(CCCCc2nnc(NC(=O)Cc3ccccn3)s2)nn1 [CB-839] — higher, 0.434
- O=C(/C=C/c1cccnc1)NCCCCC1CCN(C(=O)c2ccccc2)CC1 [Daporinad] — higher, 0.977
- Nc1ccn([C@@H]2O[C@H](CO)[C@@H](O)C2(F)F)c(=O)n1 [Gemcitabine] — lower, 0.131
- Clc1cc(Cl)c(OCC#CI)cc1Cl [Haloprogin] — higher, 0.427
- O=c1[nH]c(=O)n([C@H]2C[C@H](O)[C@@H](CO)O2)cc1I [Idoxuridine] — lower, < 0.0301
- Cc1nnc(-c2ccc(N3CCC(Oc4ccccc4C(F)(F)F)CC3)nn2)s1 [MF-438] — lower, < 0.0301
- Nc1nc(O)c2c(CCc3ccc(C(=O)N[C@@H](CCC(=O)O)C(=O)O)cc3)c[nH]c2n1 [Pemetrexed] — lower, < 0.0301
- C=C1NC(=O)c2cc(CN(C)c3ccc(C(=O)N[C@@H](CCC(=O)O)C(=O)O)s3)ccc2N1 [Raltitrexed] — lower, < 0.0301
